The values below come from patent publication US20100144672A1, “PYRIMIDINYL PYRAZOLES AS INSECTICIDES AND PARASITICIDE ACTIVE AGENTS” (BAYER CROPSCIENCE AG, priority 2006, published 2010).

The subject of series [1] is larvae of the mustard beetle (Phaedon cochleariae). The experiment in a line: Phaedon test (PHAECO spray treatment). In kind it is in vivo. As to conditions: 168 h, application rate 500 g/ha, after 7 d, read-out: activity (effect in %, beetle larvae killed). The protocol:
Phaedon Test ([…] Spray Treatment) [table] To produce a suitable preparation of active compound, 1 part by weight of active compound is mixed with the stated amounts of solvents and emulsifier, and the concentrate is diluted with emulsifier-containing water to the desired concentration. Discs of chinese cabbage (Brassica pekinensis) are sprayed with an active compound preparation of the desired concentration and, after drying, populated with larvae of the mustard beetle (Phaedon cochleariae). After the desired period of time, the effect in % is determined 100% means that all beetle larvae have been killed; 0% means that none of the beetle larvae have been killed.

Series [2] can be described thus: logP by HPLC (EEC-Directive 79/831 Annex V.A8). The series is classed as physicochemical. How it is done:
The logP values given in the tables were determined in accordance with EEC-Directive 79/831 Annex V.A8 by HPLC (gradient method, acetonitrile/0.1% strength aqueous phosphoric acid or formic acid).

Setting [3] is: HPLC gradient method, acetonitrile/0.1% aqueous phosphoric acid or formic acid.
Where [4] appears, read: Physical data column of Table 35.
Where [5] appears, read: HPLC gradient method, acetonitrile/0.1% strength aqueous phosphoric acid or formic acid.

Where two headings read alike, the source gives them in different places.

As to `CS(=O)(=O)c1ccc(-c2c(C(F)(F)F)nn(-c3ncccn3)c2N)cc1` [Example 5-60], the pest or weed control at 500 g/ha in series [1] is at least 80%.
For the molecule `Cc1nn(-c2ncccn2)c(NCC2CC2)c1-c1ccc(F)cc1` [Example 26-62], the logP entry in series [2] (Physical data of Table 26) was “logP = 3.15”.
Consider `Nc1c(-c2ccc(Br)cc2)c(C(F)(F)F)nn1-c1ncc(F)cn1` [Example 19-48], for which the lgP entry in series [2] (Table 19, Physical data) was “lgP = 3.19”.
For the molecule `CCc1nn(-c2ncccn2)c(N)c1-c1ccc(Cl)nc1` [Example 32-37], the lgP result in series [2] (Physical data column of Table 32) is recorded as “lgP = 1.76”.
Consider `Cc1cnc(-n2nc(C(F)(F)F)c(-c3ccc(Br)cc3F)c2N)nc1` [Example 19-205], for which the lgP entry in series [2] (Table 19, Physical data) is “lgP = 3.28”.
For `Nc1c(-c2cccc(Cl)c2)c(C(F)(F)F)nn1-c1ncccn1` [Example 1-5], in series [2] (setting [3]), the logP entry is recorded as “logP = 2.96”.
With `Cc1ccnc(-n2nc(C(F)(F)F)c(-c3cc(F)cc(F)c3)c2N)n1` [Example 19-199], the lgP result in series [2] (Table 19, Physical data) was “lgP = 3.06”.
For `CSc1ccc(-c2c(C(F)(F)F)nn(-c3ncccn3)c2N)cc1` [Example 5-58], the pest or weed control at 500 g/ha in series [1] was at least 80%.
Regarding `FC(F)(F)c1nn(-c2ncccn2)c(I)c1-c1ccc(Cl)c(Cl)c1` [Example 14-56], the “logP (lgP), Physical data” value in series [2] (by HPLC) is reported as “lgP = 4.39”.
For the molecule `CCNc1c(-c2ccc(F)cc2Cl)c(C)nn1-c1ncccn1` [Example 25-31], the logP entry in series [2] is given as “logP = 2.79”.
As for `CNc1c(-c2ccc(Br)cc2)c(C(F)(F)F)nn1-c1ncccn1` [Example 11-10, 4-(4-bromophenyl)-N-methyl-1-pyrimidin-2-yl-3-(trifluoromethyl)-1H-pyrazole-5-amine], in series [1], the pest or weed control at 500 g/ha is at least 80%.
For `Cc1ccnc(-n2nc(C(F)(F)F)c(-c3ccc(Br)cc3)c2N)n1` [Example 19-10], the lgP entry in series [2] (Table 19, Physical data) is on record as “lgP = 3.37”.
On the same count and under the same terms, the same measure for `Cc1ccnc(-n2nc(C(F)(F)F)c(-c3ccc(F)c(F)c3)c2N)n1` [Example 19-201]: “lgP = 3.02”.
On the same count and under the same terms, the same measure for `Nc1c(-c2cc(Cl)cc(Cl)c2)c(C(F)(F)F)nn1-c1ncc(Br)cn1` [Example 19-95]: “lgP = 4.15”; for `Nc1c(-c2ccc(Cl)cc2)c(C(F)(F)F)nn1-c1ncc(Cl)cn1` [Example 19-64]: “lgP = 3.53”; for `Nc1c(-c2cc(Cl)cc(Cl)c2)c(C(F)(F)F)nn1-c1ncc(Cl)cn1` [Example 19-76]: “lgP = 4.10”.
In the case of `Nc1c(-c2ccc(Br)cc2)c(C2CCCC2)nn1-c1ncccn1` [Example 35-87], the logP result in series [2] (setting [4]) is given as “logP 3.34”.
In the case of `Nc1c(-c2cc(Cl)cc(Cl)c2)c(C(F)(F)F)nn1-c1nccc(C(F)(F)F)n1` [Example 19-152], in series [2] (Table 19, Physical data), the lgP result was “lgP = 4.25”.
Turning to `Nc1c(-c2cc(F)cc(Cl)c2)c(C(F)(F)F)nn1-c1ncc(F)cn1` [Example 43-07], the lgP entry in series [2] (setting [5]) is “lgP = 3.24”.
On to `Cc1nn(-c2ncccn2)c(NC(C)C)c1-c1ccc(F)cc1Cl` [Example 26-37], for which, in series [2] (Physical data of Table 26), the logP entry is “logP = 2.91”.
For `Nc1c(-c2cc(F)cc(F)c2)c(C(F)(F)F)nn1-c1ncc(F)cn1` [Example 43-08], the lgP result in series [2] (setting [5]) was “lgP = 2.93”.
On to `CCNc1c(-c2ccc(F)cc2)c(C)nn1-c1ncccn1` [Example 25-04], for which the logP entry in series [2] (Table 25, Physical data) is “logP = 2.59”.
As to `Cc1cnc(-n2nc(C(F)(F)F)c(-c3ccc(F)c(F)c3)c2N)nc1` [Example 19-206], the lgP entry in series [2] (Table 19, Physical data) was “lgP = 3.02”.
On to `Nc1c(-c2ccc(Oc3ccccc3)cc2)c(C(F)(F)F)nn1-c1ncccn1` [5-40], for which the logP entry in series [2] (setting [3]) is listed as “logP 3.22”.
As for `Cc1cnc(-n2nc(C(F)(F)F)c(-c3cc(C)cc(C)c3)c2N)nc1` [Example 19-208], in series [2] (Table 19, Physical data), the lgP result is reported as “lgP = 3.47”.
Regarding `FC(F)(F)c1nn(-c2ncccn2)c(I)c1-c1cccc(Cl)c1` [Example 14-44], the “logP (lgP), Physical data” value in series [2] (by HPLC) is listed as “lgP = 3.78”.
With `CCNc1c(-c2cccc(Cl)c2)c(C)nn1-c1ncccn1` [Example 25-06], the logP entry in series [2] (Table 25, Physical data) is listed as “logP = 3.02”.
As to `Cc1ccnc(-n2nc(C(F)(F)F)c(-c3ccc(Cl)c(Cl)c3)c2N)n1` [Example 19-18], the lgP result in series [2] (Table 19, Physical data) is listed as “lgP = 3.73”.
Consider `C[S+]([O-])c1ccc(-c2c(C(F)(F)F)nn(-c3ncccn3)c2N)cc1` (stereo not drawn) [Example 5-59], for which the pest or weed control at 500 g/ha in series [1] was at least 80%.
For the molecule `Cc1ccnc(-n2nc(C(F)(F)F)c(-c3cccc(Br)c3)c2N)n1` [Example 19-09], in series [2] (Table 19, Physical data), the lgP entry is recorded as “lgP = 3.84”.
As to `COc1ccnc(-n2nc(C(F)(F)F)c(-c3cc(Cl)cc(Cl)c3)c2N)n1` [Example 19-171], the lgP result in series [2] (Table 19, Physical data) is reported as “lgP = 2.93”.
The same measure, in the same setting: the same measure for `Cc1cc(C)cc(-c2c(C(F)(F)F)nn(-c3nccc(C)n3)c2N)c1` [Example 19-202]: “lgP = 3.42”.
With `FC(F)(F)c1nn(-c2ncccn2)c(Cl)c1-c1cccc(Cl)c1` [Example 14-06], in series [2] (by HPLC), the “logP (lgP), Physical data” value is recorded as “lgP = 3.88”.
As for `Nc1c(-c2cccc(SC(F)(F)F)c2)c(C(F)(F)F)nn1-c1ncccn1` [Example 6-61], the pest or weed control at 500 g/ha in series [1] was at least 80%.
With `CCCNc1c(-c2cccc(Cl)c2)c(C)nn1-c1ncccn1` [Example 26-6], the logP result in series [2] (Physical data of Table 26) was “logP = 3.37”.
In the case of `Cc1cnc(-n2nc(C(F)(F)F)c(-c3cc(F)cc(Cl)c3)c2N)nc1` [Example 19-203], the lgP entry in series [2] (Table 19, Physical data) is on record as “lgP = 3.42”.
`CCOc1ccc(-c2c(C(F)(F)F)nn(-c3ncccn3)c2N)cc1` [Example 5-23]: the pest or weed control at 500 g/ha in series [1] is at least 80%.
Consider `Nc1c(-c2ccccc2Cl)c(C(F)(F)F)nn1-c1ncccn1` [1-04], for which the logP result in series [2] is given as “logP = 2.59”.
For `Nc1c(-c2ccc(Br)cc2F)c(C(F)(F)F)nn1-c1ncc(F)cn1` [Example 43-09], in series [2] (setting [5]), the lgP result is reported as “lgP = 3.15”.
For the molecule `Cc1nn(-c2ncccn2)c(N)c1-c1ccc(F)cc1Cl` [Example 16-18], the logP entry in series [2] (Physical data column of Table 16) is “logP = 1.71”.
As for `FC(F)(F)c1nn(-c2ncccn2)c(Br)c1-c1ccc(Br)cc1` [Example 14-29], in series [2] (by HPLC, read-out: logP (lgP), Physical data), the chromatographic logP is 3.75.
In the case of `Cc1nn(-c2ncccn2)c(NCc2ccccc2)c1-c1ccccc1Cl` [Example 26-44], the logP result in series [2] (Physical data of Table 26) was “logP = 3.37”.
`Nc1c(-c2ccc(Cl)cc2)c(C2CC2)nn1-c1ncccn1` [Example 35-07]: the logP result in series [2] (setting [4]) is given as “logP 2.66; ^1H-NMR”.
In the case of `FC(F)(F)c1nn(-c2ncccn2)c(Br)c1-c1cc(Cl)cc(Cl)c1` [Example 14-38], in series [2] (by HPLC), the “logP (lgP), Physical data” value is “lgP = 4.62”.
As for `Cc1cnc(-n2nc(C(F)(F)F)c(-c3cc(F)cc(F)c3)c2N)nc1` [Example 19-204], in series [2] (Table 19, Physical data), the lgP entry is listed as “lgP = 3.06”.
Take `CCNc1c(-c2ccccc2Cl)c(C)nn1-c1ncccn1` [Example 25-05]: the logP entry in series [2] (Table 25, Physical data) is “logP = 2.69”.
On to `N#Cc1ccnc(-n2nc(C(F)(F)F)c(-c3cc(Cl)cc(Cl)c3)c2N)n1` [Example 19-209], for which, in series [2] (Table 19, Physical data), the lgP entry is recorded as “lgP = 3.84”.
As for `FC(F)(F)c1cc(Cl)cc(-c2c(C(F)(F)F)nn(-c3ncccn3)c2I)c1` [Example 14-59], the “logP (lgP), Physical data” value in series [2] (by HPLC) was “lgP = 4.39”.
For `FC(F)(F)c1nn(-c2ncccn2)c(Br)c1-c1cccc(Cl)c1` [Example 14-25], the “logP (lgP), Physical data” value in series [2] (by HPLC) was “lgP = 3.89”.
As for `CC(C)=CCNc1c(-c2ccc(Cl)cc2)c(C)nn1-c1ncccn1` [Example 26-84], in series [2] (Physical data of Table 26), the logP entry is reported as “logP = 3.84”.
On to `Cc1ccnc(-n2nc(C(F)(F)F)c(-c3ccc(Br)cc3F)c2N)n1` [Example 19-200], for which, in series [2] (Table 19, Physical data), the lgP entry was “lgP = 3.28”.
For the molecule `Cc1nn(-c2ncccn2)c(NCc2ccccc2)c1-c1ccc(Cl)cc1Cl` [Example 26-54], the logP result in series [2] (Physical data of Table 26) is recorded as “logP = 4.23”.
On to `Cc1cnc(-n2nc(C(F)(F)F)c(-c3cc(Br)cc(Br)c3)c2N)nc1` [Example 19-207], for which the lgP entry in series [2] (Table 19, Physical data) was “lgP = 4.05”.
`CN(C)c1ccc(-c2c(C(F)(F)F)nn(-c3ncccn3)c2N)cc1` [Example 5-89]: the pest or weed control at 500 g/ha in series [1] is at least 80%.
`Nc1c(-c2ccc(F)c(F)c2)c(C(F)(F)F)nn1-c1ncc(F)cn1` [Example 43-10]: the lgP result in series [2] (setting [5]) was “lgP = 2.84”.
The same measure, in the same setting: the same measure for `Nc1c(-c2cc(Br)cc(Br)c2)c(C(F)(F)F)nn1-c1ncc(F)cn1` [Example 43-11]: “lgP = 3.84”.
On to `CC(C)Oc1ccc(-c2c(C(F)(F)F)nn(-c3ncccn3)c2N)cc1Cl` [Example 8-92, 4-(3-chloro-4-isopropoxyphenyl)-2-pyrimidin-2-yl-5-trifluoromethyl-2H-pyrazol-3-ylamine], for which the pest or weed control at 500 g/ha in series [1] is at least 80%.
Still for that read-out and setting: the same measure for `CC(C)Oc1ccc(-c2c(C(F)(F)F)nn(-c3ncccn3)c2N)cc1` [Example 5-25]: at least 80%.
For the molecule `CCCNc1c(-c2ccc(Cl)cc2)c(C)nn1-c1ncccn1` [Example 26-7], the logP result in series [2] (Physical data of Table 26) is “logP = 3.42”.
For the molecule `FC(F)(F)c1nn(-c2ncccn2)c(I)c1-c1cc(Cl)cc(Cl)c1` [Example 14-57], the “logP (lgP), Physical data” value in series [2] (by HPLC) is “lgP = 4.51”.
The same measure, in the same setting: the same measure for `FC(F)(F)c1cc(Cl)cc(-c2c(C(F)(F)F)nn(-c3ncccn3)c2Br)c1` [Example 14-58]: “lgP = 4.64”.
For the molecule `Nc1c(-c2cc(Cl)cc(Cl)c2)c(C(F)(F)F)nn1-c1ncc(F)cn1` [Example 19-57], in series [2] (Table 19, Physical data), the lgP entry is listed as “lgP = 3.63”.
As to `Cc1ccnc(-n2nc(C(F)(F)F)c(-c3cc(F)cc(Cl)c3)c2N)n1` [Example 19-198], the lgP result in series [2] (Table 19, Physical data) is “lgP = 3.42”.
